Data published in publication PMC11644518 (Plants, 2024).
Values joined by “and” are separate entries in the source; they are usually repeats but may differ in a detail not shown here. Equal values may be shown once.

How the values were obtained:
SARS-CoV PLpro [1] = biological target: T1, SARS-CoV PLpro (Severe acute respiratory syndrome coronavirus, UniProt P0C6X7); test: biochemical; settings: for IC50: IC50 Value, SARS-CoV PLpro inhibitory activity
SARS-CoV PLpro [2] = biological target: T1, SARS-CoV PLpro; test: biochemical; settings: for Ki: Ki (inhibition constant)

CC(C)=CCC/C(C)=C/Cc1c(O)ccc(C(=O)/C=C/c2ccc(O)cc2)c1O [Compound 7, xanthoangelol]
IC50 (SARS-CoV PLpro [1]): 6.3 ± 1.5 µM | Inhibition Mode (SARS-CoV PLpro [2]): Noncompetitive (5.5 ± 0.8) | Ki (SARS-CoV PLpro [2]): 5.5 µM

CC(C)=CCc1cc2c(cc1O)OC[C@H]1c3ccc(O)c(CC=C(C)C)c3O[C@@H]21 [Compound 1, erythrabyssin II]
Inhibition Mode (SARS-CoV PLpro [2]): Noncompetitive (17.0 ± 3.1)

COc1c(CC=C(C)C)c(O)cc2c1[C@@H]1Oc3c(cc(C)c(O)c3CC=C(C)C)[C@@H]1CO2 [Compound 4, bicolosin A]
IC50 (SARS-CoV PLpro [1]): 43.3 µM and 43.2 µM | Inhibition Mode (SARS-CoV PLpro [2]): Noncompetitive (45.2 ± 3.1) | Ki (SARS-CoV PLpro [2]): 45.2 µM

CC(C)=CCC/C(C)=C/Cc1cc2c(cc1O)OC[C@H]1c3cc(C)c(O)c(CC=C(C)C)c3O[C@@H]21 [Compound 5, bicolosin B]
IC50 (SARS-CoV PLpro [1]): 217 ± 7.6 µM

COc1cc(O)c(C/C=C(\C)CCC=C(C)C)c2c1[C@@H]1Oc3cc(O)ccc3[C@@H]1CO2 [Compound 6, bicolosin C]
IC50 (SARS-CoV PLpro [1]): 9.3 ± 3.1 µM | Effect on Michaelis-Menten constant (Km) (SARS-CoV PLpro [2]): no effect | Effect on Vmax (SARS-CoV PLpro [2]): reduced | Inhibition Mode (SARS-CoV PLpro [2]): Noncompetitive (9.0 ± 1.4) | Reversibility of inhibition (SARS-CoV PLpro [2]): reversible inhibitor | Ki (SARS-CoV PLpro [2]): 9.06 µM and 9 µM

COc1c(O)ccc(C2COc3cc(O)cc(O)c3C2=O)c1OC (stereo not shown) [Compound 9, parvisoflavanone]
IC50 (SARS-CoV PLpro [1]): 104 ± 6.1 µM | Inhibition Mode (SARS-CoV PLpro [2]): Noncompetitive (75.3 ± 5.7) | Ki (SARS-CoV PLpro [2]): 75.3 µM

CC(C)=CCc1cc2c(cc1O)OCC1c3cc(C)c(O)c(CC=C(C)C)c3OC21 (stereo not shown) [Compound 2, lespebuergine G4]
IC50 (SARS-CoV PLpro [1]): 33 µM and 32.9 µM | Inhibition Mode (SARS-CoV PLpro [2]): Noncompetitive (33.2 ± 1.7) | Ki (SARS-CoV PLpro [2]): 33.2 µM

CC(C)=CCC[C@@]1(C)C=Cc2c(ccc(C(=O)/C=C/c3ccc(O)cc3)c2O)O1 (racemic) [Compound 8, (±)-lespeol]
fold lower potency than 7 (SARS-CoV PLpro [1]): 8 fold | IC50 (SARS-CoV PLpro [1]): 50.1 ± 4.2 µM | Inhibition Mode (SARS-CoV PLpro [2]): Noncompetitive (54.0 ± 4.5) | Ki (SARS-CoV PLpro [2]): 54 µM

COc1c(CC=C(C)C)c(O)cc2c1[C@@H]1Oc3c(ccc(O)c3CC=C(C)C)[C@@H]1CO2 [Compound 3, 1-methoxyerythrabyssin II]
fold higher inhibition than demethoxylated analog 1 (SARS-CoV PLpro [1]): 2 fold | IC50 (SARS-CoV PLpro [1]): 11.2 µM | Inhibition Mode (SARS-CoV PLpro [2]): Noncompetitive (8.6 ± 1.1) | Ki (SARS-CoV PLpro [2]): 8.6 µM
